Experimental data from US20170298090A1, “Modulators of ROR-gamma Receptors, Composition and Use Thereof” (KULING THERAPEUTICS, priority 2016, published 2017).
“Also recorded” adds a separate entry of the source. Where two headings read alike, the source gives them in different places.

Columns and labels:
[1] = tested on: Th17 cells; test: Th17 differentiation of mouse naive CD4+ T cells, IL-17/IL-17F intracellular staining; assay type: cell-based; conditions: for inhibition of TH17 differentiation (in words): 2-10 μM, in vitro culture; for IL-17 and IL-17F expression in Th17 cells (in words): FIG. 1
Description: T-cell Isolation and Differentiation—Mouse T cell differentiation was performed and analyzed by intracellular staining as described. […] The Journal of biological chemistry 286: 22707-22710 (2011); Wang, X., et al. Transcription of Il17 and Il17f is controlled by conserved noncoding sequence 2. Immunity 36: 23-31 (2012). Briefly, mouse naïve CD4^+ T cells (CD4^+CD25^−CD62L^hi-CD44^lo) were isolated from spleens and lymph nodes by FACS sorting. Th17 differentiation was performed with 15 ng ml^− IL-6 and 2.5 ng ml^− TGF-β in the presence of 1 μg ml^− anti-CD3 (plate bound) and 1 μg ml^− anti-CD28 (plate bound) for 4 days. When indicated, different concentrations of UA, KL001, other UA analogs or small molecules (dissolved in DMSO) were added at the beginning of Th17 differentiation. The mature Th17 cells were restimulated with 50 ng ml^− PMA (phorbol 12-myristate 13-acetate) and 500 ng ml^− inomycin in the presence of BD GolgiStop™ for 6 hrs, stained intracellularly for IL-17 and IL-17F, and then analyzed by flow cytometry.
UA and its analogs KL001 to KL005, 201702-1 to 201702-4, and 201509-1 to 201509-3 inhibit TH17 differentiation. Mouse naïve CD4+ T cells were cultured under Th17 polarizing condition in the presence of above chemicals (2-10 μM) or DMSO control (Ctrl) for 4 days and then restimulated for IL-17 and IL-17F staining (FIG. 1). […] The Journal of biological chemistry 286: 22707-22710 (2011), 2 μM UA inhibited ˜80% IL-17 expression and ˜50% IL-17F expression, both of which were reported to contribute TH17-mediated autoimmune diseases Yang, X. O., Chang, S. H., Park, H. et al. Regulation of inflammatory responses by IL-17F. The Journal of experimental medicine, 205: 1063-1075 (2008). […] (FIG. 1), whereas other UA analogs inhibited TH17 differentiation at a less degree (FIG. 1 and FIG. 6).

[2] = tested on: experimental autoimmune encephalomyelitis (EAE); test: MOG-induced EAE, preventative disease model; assay type: in vivo, mice; conditions: for IL-17 expression of T cells infiltrated into the central nerve system: 100 mg/kg i.p. every other day; for effect on EAE disease (in words): 100 mg/kg i.p. every other day after first MOG immunization
Description: (§1) MOG-induced Experimental Autoimmune Encephalomyelitis (EAE)—EAE induction were performed by immunizing mice twice with MOG35-55 peptide (amino acids 35-55; MEVGWYRSPFSROVHLYRNGK) emulsified in CFA followed by pertussis toxin injection with slight modifications, and analyzed as previously described. […] The Journal of biological chemistry 286: 22707-22710 (2011); Wang, X., et al. Transcription of Il17 and Il17f is controlled by conserved noncoding sequence 2. Immunity 36: 23-31 (2012). Briefly, the disease scores were assigned on a scale of 0-5 as follows: 0, none; 1, limp tail or waddling gait with tail tonicity; 2, wobbly gait; 3, hindlimb paralysis; 4, hindlimb and forelimb paralysis; 5, death.
The Journal of biological chemistry 286: 22707-22710 (2011).

[3] = tested on: experimental autoimmune encephalomyelitis (EAE); test: MOG-induced EAE, therapeutic disease model; assay type: in vivo, mice; conditions: ~250 mg/kg gavage twice daily from Day 9
Description: as §1
To test the therapeutic potential of KL001, EAE was first induced by MOG immunization and PTX injection as described.

[4] = tested on: imiquimod (IMQ)-induced psoriasis; test: IMQ-induced psoriasis, preventative disease model; assay type: in vivo, C57BL/6 mice; conditions: ~250 mg/kg gavage twice daily
Description: IMQ-induced psoriasis model—The mouse psoriasis model was induced according to previous described with minor modifications. van der Fits L, et al. (2009) Imiquimod-induced psoriasis-like skin inflammation in mice is mediated via the IL-23/IL-17 axis. J Immunol 182(9):5836-5845. Briefly, 7-9 weeks old female C57BL/6 mice were used to induce psoriasis. On day 0, the hair was removed from the dorsal skin of the mice after anaesthetizing with pentobarbital (˜0.2 ml/20 g body weight by i.p.). On day 1, psoriasis was induced […] by applying 62.5 mg 5% imiquimod cream to the dorsal skin after anaesthesia on a daily base. In the preventative disease model, KL001 (dissolved in 0.5% methylcellulose (MC)) or 0.5% MC (control group) was orally administrated into C57BL/6 mice by gavage at a dosage of ˜250 mg/kg body weight twice daily starting 2 days before induction of psoriasis (Day −2). The mice were then sacrificed on Day 5, and the skin tissues were then removed for H&E staining and mRNA expression analysis. […] The expression of Il17, Il17f and Rorc (encoding RORγt) were then quantified by realtime PCR and normalized to Actb gene by using the following primers: Actb, F: […]/R (SEQ ID NO.1): […] […]

[5] = tested on: Th17 cells; conditions: previous studies (Xu et al. 2011); read-out: IC50 in inhibiting Th17 differentiation; cited from earlier work
[6] = target: STAT3 (Homo sapiens, UniProt P40763); conditions: previous studies; cited from earlier work
[7] = tested on: rodents; conditions: cited from earlier work
[8] = 2 μM, Th17 polarizing condition, 4 days

Sequence of STAT3 (P40763 whole entry, species assumed): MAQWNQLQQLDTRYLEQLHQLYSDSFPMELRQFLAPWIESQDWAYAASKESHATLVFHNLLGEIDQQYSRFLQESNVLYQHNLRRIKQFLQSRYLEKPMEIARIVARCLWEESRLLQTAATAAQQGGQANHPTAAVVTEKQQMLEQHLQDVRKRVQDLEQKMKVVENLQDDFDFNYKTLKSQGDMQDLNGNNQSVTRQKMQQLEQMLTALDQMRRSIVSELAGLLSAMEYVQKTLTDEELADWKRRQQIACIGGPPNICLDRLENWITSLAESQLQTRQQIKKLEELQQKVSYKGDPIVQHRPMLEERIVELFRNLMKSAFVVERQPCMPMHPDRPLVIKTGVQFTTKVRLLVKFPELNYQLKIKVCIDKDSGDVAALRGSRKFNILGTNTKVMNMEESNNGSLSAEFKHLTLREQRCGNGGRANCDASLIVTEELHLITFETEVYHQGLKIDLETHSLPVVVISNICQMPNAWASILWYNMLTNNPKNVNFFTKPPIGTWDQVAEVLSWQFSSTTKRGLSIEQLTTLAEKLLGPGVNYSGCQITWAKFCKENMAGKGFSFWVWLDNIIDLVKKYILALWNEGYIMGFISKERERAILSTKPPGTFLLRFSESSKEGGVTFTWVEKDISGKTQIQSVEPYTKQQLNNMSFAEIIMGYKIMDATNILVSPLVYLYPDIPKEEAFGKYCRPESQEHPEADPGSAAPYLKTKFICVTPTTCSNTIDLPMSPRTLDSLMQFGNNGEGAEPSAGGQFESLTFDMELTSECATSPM

IC50 ([1]; Mus musculus, CD4+ T, readout of IL-17 staining, titration, read-out: IC50 in inhibiting Th17 differentiation) [nM] | Compound | inhibition of TH17 differentiation (in words) ([1]; 4 days) | IL-17 and IL-17F expression in Th17 cells (in words) [1] | IL-17 expression of T cells infiltrated into the central nerve system [2] | effect on EAE disease (in words) [2] | effect on EAE disease (in words) [3] | reduction of average disease scores vs control group [3] [%] | psoriatic symptoms, redness and roughness of the skin (in words) [4] | expression of IL-17 in skin samples ([4]; mRNA) | inhibition of IL-17F expression [1, 8] [%] | inhibition of IL-17 expression [1, 8] [%] | IC50 [5] [nM] | concentration at which inhibitory activity on STAT3 was observed [6] | acute toxicity LD50 ([7]; intraperitoneal injection (Lee et al. 2010)) [mg/kg] | acute toxicity LD50 ([7]; oral administration (Lee et al. 2010)) [mg/kg]
~490 | Cc1oc(=O)oc1COC(=O)[C@]12CC[C@@H](C)[C@H](C)[C@H]1C1=CC[C@@H]3[C@@]4(C)CC[C@H](O)C(C)(C)[C@@H]4CC[C@@]3(C)[C@]1(C)CC2 [KL001, (5-methyl-2-oxo-1,3-dioxol-4-yl)methyl (1S,2R,4aS,6aS,6bR,8aR,10S,12aR,12bR,14bS)-10-hydroxy-1,2,6a,6b,9,9,12a-heptamethyl-1,3,4,5,6,6a,6b,7,8,8a,9,10,11,12,12a,12b,13,14b-octadecahydropicene-4a(2H)-carboxylate] | comparable level to UA; also recorded: comparable efficacy with UA | inhibited | significantly reduced | greater degree than UA; also recorded: ameliorated | significantly reduced the disease severity; also recorded: ameliorated | 50 | visually and greatly reduced; also recorded: ameliorated psoriatic symptoms | notably reduced |  |  |  |  |  | 
 | C[C@H]1[C@H](C)CC[C@]2(C(=O)O)CC[C@]3(C)C(=CC[C@@H]4[C@@]5(C)CC[C@H](O)C(C)(C)[C@@H]5CC[C@]43C)[C@H]12 [UA, ursolic acid, reference compound] | inhibit | inhibited | significantly reduced | ameliorated | did not affect; also recorded: but not UA, ameliorated |  |  |  | ~50 | ~80 | 680 | higher than 25 μM | > 637 | 8330
